Test system: patients with cGVHD
Conditions: Cohort 2 200 mg BID

Compound: CC(C)NC(=O)COc1cccc(-c2nc(Nc3ccc4[nH]ncc4c3)c3ccccc3n2)c1 [Belumosudil, 2-{3-[4-(1H-indazol-5-ylamino)-2-quinazolinyl]phenoxy}-N-(propan-2-yl) acetamide]
- Macular degeneration: Affected/At Risk (%): 1/16 (6.25%)
- Migraine: # Events: 1
- Migraine: Affected/At Risk (%): 1/16 (6.25%)
- Muscle spasms: # Events: 0
- Muscle spasms: Affected/At Risk (%): 0/16 (0%)
- Muscle spasticity: # Events: 0
- Muscle spasticity: Affected/At Risk (%): 0/16 (0%)
- Muscular weakness: # Events: 1
- Muscular weakness: Affected/At Risk (%): 1/16 (6.25%)
- Musculoskeletal chest pain: # Events: 0
- Musculoskeletal chest pain: Affected/At Risk (%): 0/16 (0%)
- Myalgia: # Events: 1
- Myalgia: Affected/At Risk (%): 1/16 (6.25%)
- Nail disorder: # Events: 0
- Nail disorder: Affected/At Risk (%): 0/16 (0%)
- Nasal congestion: Affected/At Risk (%): 0/16 (0%)
- Nausea: # Events: 6
- Nausea: Affected/At Risk (%): 4/16 (25%)
- Neck pain: # Events: 0
- Neck pain: Affected/At Risk (%): 0/16 (0%)
- Nephrotic syndrome: # Events: 1
- Nephrotic syndrome: Affected/At Risk (%): 1/16 (6.25%)
- Neuropathy peripheral: # Events: 1
- Neuropathy peripheral: Affected/At Risk (%): 1/16 (6.25%)
- Neutrophil count decreased: # Events: 0
- Neutrophil count decreased: Affected/At Risk (%): 0/16 (0%)
- Nocturia: # Events: 0
- Nocturia: Affected/At Risk (%): 0/16 (0%)
- Non-cardiac chest pain: # Events: 3
- Non-cardiac chest pain: Affected/At Risk (%): 3/16 (18.75%)
- Obesity: # Events: 0
- Obesity: Affected/At Risk (%): 0/16 (0%)
- Oedema peripheral: # Events: 5
- Oedema peripheral: Affected/At Risk (%): 4/16 (25%)
- Oedema: # Events: 1
- Oedema: Affected/At Risk (%): 1/16 (6.25%)
- Oesophageal ulcer: # Events: 1
- Oesophageal ulcer: Affected/At Risk (%): 1/16 (6.25%)
- Oral candidiasis: # Events: 1
- Oral candidiasis: Affected/At Risk (%): 1/16 (6.25%)
- Oropharyngeal pain: # Events: 0
- Oropharyngeal pain: Affected/At Risk (%): 0/16 (0%)
- Orthopnoea: # Events: 0
- Orthopnoea: Affected/At Risk (%): 0/16 (0%)
- Osteonecrosis: # Events: 0
- Osteonecrosis: Affected/At Risk (%): 0/16 (0%)
- Osteopenia: # Events: 1
- Osteopenia: Affected/At Risk (%): 1/16 (6.25%)
- Osteoporosis: # Events: 1
- Osteoporosis: Affected/At Risk (%): 1/16 (6.25%)
- Overdose: # Events: 0
- Overdose: Affected/At Risk (%): 0/16 (0%)
- Pain in extremity: # Events: 3
- Pain in extremity: Affected/At Risk (%): 2/16 (12.5%)
- Pain: # Events: 0
- Pain: Affected/At Risk (%): 0/16 (0%)
- Palpitations: # Events: 0
- Palpitations: Affected/At Risk (%): 0/16 (0%)
- Paraesthesia: # Events: 1
- Paraesthesia: Affected/At Risk (%): 1/16 (6.25%)
- Pericardial effusion: # Events: 0
- Pericardial effusion: Affected/At Risk (%): 0/16 (0%)
- Peripheral coldness: # Events: 0
- Peripheral coldness: Affected/At Risk (%): 0/16 (0%)
- Peripheral sensory neuropathy: # Events: 1
- Peripheral sensory neuropathy: Affected/At Risk (%): 1/16 (6.25%)
- Phlebitis: # Events: 1
- Phlebitis: Affected/At Risk (%): 1/16 (6.25%)
- Photophobia: # Events: 1
- Photophobia: Affected/At Risk (%): 1/16 (6.25%)
- Platelet count decreased: # Events: 0
- Platelet count decreased: Affected/At Risk (%): 0/16 (0%)
- Pleural effusion: # Events: 0
- Pleural effusion: Affected/At Risk (%): 0/16 (0%)
- Pneumonia respiratory syncytial viral: # Events: 1
- Pneumonia respiratory syncytial viral: Affected/At Risk (%): 1/16 (6.25%)
- Pneumonia: # Events: 3
- Pneumonia: Affected/At Risk (%): 3/16 (18.75%)
- Pollakiuria: # Events: 0
- Pollakiuria: Affected/At Risk (%): 0/16 (0%)
- Presyncope: # Events: 3
- Presyncope: Affected/At Risk (%): 3/16 (18.75%)
- Productive cough: # Events: 7
- Productive cough: Affected/At Risk (%): 2/16 (12.5%)
- Proteinuria: # Events: 1
- Proteinuria: Affected/At Risk (%): 1/16 (6.25%)
- Pruritus: # Events: 4
- Pruritus: Affected/At Risk (%): 2/16 (12.5%)
- Pseudomonas infection: # Events: 2
- Pseudomonas infection: Affected/At Risk (%): 1/16 (6.25%)
- Pulmonary mass: # Events: 1
- Pulmonary mass: Affected/At Risk (%): 1/16 (6.25%)
- Pyrexia: # Events: 6
- Pyrexia: Affected/At Risk (%): 3/16 (18.75%)
- Rash erythematous: # Events: 1
- Rash erythematous: Affected/At Risk (%): 1/16 (6.25%)
- Rash maculo-papular: # Events: 0
- Rash maculo-papular: Affected/At Risk (%): 0/16 (0%)
- Rash pustular: # Events: 1
- Rash pustular: Affected/At Risk (%): 1/16 (6.25%)
- Rash: # Events: 1
- Rash: Affected/At Risk (%): 1/16 (6.25%)
- Red blood cells urine positive: # Events: 1
- Red blood cells urine positive: Affected/At Risk (%): 1/16 (6.25%)
- Renal failure: # Events: 1
- Renal failure: Affected/At Risk (%): 1/16 (6.25%)
- Respiratory syncytial virus infection: # Events: 1
- Respiratory syncytial virus infection: Affected/At Risk (%): 1/16 (6.25%)
- Respiratory tract infection fungal: # Events: 0
- Respiratory tract infection fungal: Affected/At Risk (%): 0/16 (0%)
- Respiratory tract infection: # Events: 0
- Respiratory tract infection: Affected/At Risk (%): 0/16 (0%)
- Restless legs syndrome: # Events: 1
- Restless legs syndrome: Affected/At Risk (%): 1/16 (6.25%)
- Rosacea: # Events: 1
- Rosacea: Affected/At Risk (%): 1/16 (6.25%)
- SAE, No. (%): 6 (38)
- Sinus pain: # Events: 0
- Sinus pain: Affected/At Risk (%): 0/16 (0%)
- Sinusitis: # Events: 4
- Sinusitis: Affected/At Risk (%): 2/16 (12.5%)
- Skin abrasion: # Events: 0
- Skin abrasion: Affected/At Risk (%): 0/16 (0%)
- Skin lesion: # Events: 1
- Skin lesion: Affected/At Risk (%): 1/16 (6.25%)
- Skin papilloma: # Events: 0
- Skin papilloma: Affected/At Risk (%): 0/16 (0%)
- Spinal compression fracture: # Events: 0
- Spinal compression fracture: Affected/At Risk (%): 0/16 (0%)
- Squamous cell carcinoma of skin: # Events: 2
- Squamous cell carcinoma of skin: Affected/At Risk (%): 2/16 (12.5%)
- Stomatitis: # Events: 1
- Stomatitis: Affected/At Risk (%): 1/16 (6.25%)
- Superior vena cava syndrome: # Events: 2
- Superior vena cava syndrome: Affected/At Risk (%): 1/16 (6.25%)
- TEAE, participants (%): 16 (100%) participants
- TESAE, participants (%): 6 (38%) participants
- Tachycardia: # Events: 0
- Tachycardia: Affected/At Risk (%): 0/16 (0%)
- Tendonitis: # Events: 1
- Tendonitis: Affected/At Risk (%): 1/16 (6.25%)
- Testicular pain: # Events: 0
- Testicular pain: Affected/At Risk (%): 0/16 (0%)
- Testicular swelling: # Events: 0
- Testicular swelling: Affected/At Risk (%): 0/16 (0%)
- Thoracic spinal stenosis: # Events: 0
- Thoracic spinal stenosis: Affected/At Risk (%): 0/16 (0%)
- Thrombocytopenia: # Events: 1
- Thrombocytopenia: Affected/At Risk (%): 1/16 (6.25%)
- Thrombocytosis: # Events: 0
- Thrombocytosis: Affected/At Risk (%): 0/16 (0%)
- Tinea pedis: # Events: 1
- Tinea pedis: Affected/At Risk (%): 1/16 (6.25%)
- Tooth fracture: # Events: 1
- Tooth fracture: Affected/At Risk (%): 1/16 (6.25%)
- Total other adverse events: Affected/At Risk (%): 16/16 (100%)
- Transfusion reaction: # Events: 0
- Transfusion reaction: Affected/At Risk (%): 0/16 (0%)
- Tremor: # Events: 2
- Tremor: Affected/At Risk (%): 1/16 (6.25%)
- Type 2 diabetes mellitus: # Events: 0
- Type 2 diabetes mellitus: Affected/At Risk (%): 0/16 (0%)
- Ulcerative keratitis: # Events: 1
- Ulcerative keratitis: Affected/At Risk (%): 1/16 (6.25%)
- Upper respiratory tract infection: # Events: 13
- Upper respiratory tract infection: Affected/At Risk (%): 9/16 (56.25%)
- Upper-airway cough syndrome: # Events: 2
- Upper-airway cough syndrome: Affected/At Risk (%): 2/16 (12.5%)
- Urinary retention: # Events: 2

Reference: patent publication US20260027116A1, “Methods of Treating Chronic Graft-Versus-Host Disease Following Allogeneic Hematopoietic Stem Cell Transplantation” (Kadmon Corporation, LLC, priority 2022, published 2026)
